From doi:10.1101/2025.07.20.665728 (bioRxiv, 2025)

Columns and labels:
Type in all cases: cell-based
C1R.MR1 cells [1] = assay: Cell surface MR1 quantification by flow cytometry, C1R.MR1; conditions: for MR1 cell surface expression: 1–200 μM
Experimental: Next, we investigated whether these RF catabolites can impact MR1 cell surface expression in both MR1-transduced B cell lymphoblastoid (C1R.MR1) and monocytic (THP-1.MR1) cell lines (Fig. 2). Here, the cells were pulsed with 1–200 μM of RF or the RF catabolites, and the cell surface levels of MR1 were quantified by flow cytometry ([Awad et al., 2020a]; [Keller et al., 2017]). Cell viability was unaffected, even at highest concentrations of the catabolites, as depicted in Fig. S2A. […] No impact on the MR1 surface level was observed when the parental C1R cells were incubated with these RF catabolites, probably due to the low basal surface MR1 level whose further reduction becomes undetectable by the anti-MR1 antibody (Fig. S2B). The MR1 downregulation seen in C1R.MR1 cells was specific to MR1 as the level of HLA-A*02:01 was not affected after pulsing C1R-A2 with the ligands (Fig. S2C). […] This MR1 downregulation varied between cell types, with a higher extent observed in THP-1.MR1 than C1R.MR1, and was seen after staining with both two conformational anti-MR1 8F2F9 and 26.5 antibodies (clones 8F2F9 and 26.5; Fig. 2G).
The level of MR1 expressed on the cell surface was measured after the exposure to the investigated ligands as previously described ([Awad et al., 2020a]; [Wang et al., 2022a]). C1R antigen presenting B lymphocytes overexpressing MR1*01 (C1R.MR1), MR1^K43A mutant (C1R.MR1^K43A), MR1^R9H mutant (C1R.MR1^R9H) or HLA-A*02:01 (C1R-A2), in addition to the monocytic THP-1-MR1 cells, were used in this study. 2 x 10^5 cells were incubated with RF catabolites for 3 or 16 h at 37° C and 5% CO2 in 200 μl folate-free RPMI 1640 medium from Gibco (Cat. No. 11875-093) fortified with 10% fetal bovine serum (FBS), sodium pyruvate (1 mmol/L), Hepes buffer (15 mmol/L), pH 7.2 to 7.5, 2% penicillin (100 U/ml), streptomycin ([…]), glutamax (2 mmol/L), nonessential amino acids (0.1 mmol/L) (all from ThermoFisher, Life Technologies), and 2-mercaptoethanol ([…], Sigma) (RF-10). After incubation, the cells were first stained with Zombie Aqua Fixable Viability Kit from BioLegend (Cat. No. 423102) and then incubated with biotinylated 8F2F9 αMR1 antibody for 30 minutes on ice. The unbound antibody was then washed off with 2% fetal bovine serum/PBS. The cells were finally incubated with PE-conjugated streptavidin (BioLegend, 30 μg/ml) and then washed with 2% fetal bovine serum/PBS. The PE fluorescence intensity reflects the surface MR1 level. The data was acquired with an LSRFortessa X-20 (BD Biosciences) and Diva software (BD Biosciences) and analyzed using FlowJo software (BD Biosciences).

C1R.MR1 cells [2] = assay: Intracellular total folded MR1 by flow cytometry (8F2.F9); conditions: C1R.MR1, 100 μM, 16 h
[3] = test system: SKW-3 cells expressing MBV28 (TRAV1-2/TRBV28) TCR; assay: MAIT cell activation assay, SKW-3 MBV28 TCR co-cultured with C1R.MR1; conditions: for 5-OP-RU-induced activation (CD69): SKW-3 MBV28, in presence of 1 nM 5-OP-RU
Experimental: (§1) Next, we explored whether RF catabolites could activate SKW-3 cells expressing two different MAIT TCRs. Distinct responses of T cells expressing TCRs with varying TRBV chain usage reinforces the role of Vβ in modulating MAIT responses to various ligands ([Chancellor et al., 2023]; [Gherardin et al., 2016]; [Seneviratna et al., 2022]).The surface expression of CD69 was measured as a marker for activation of cells expressing the AF-7 (TRAV1-2/TRBV6-1) or MBV28 (TRAV1-2/TRBV28) TCRs after co-culture with C1R.MR1 cells and the ligands.
(§2) C1R.MR1 cells (1 x 10^5) were initially stained with CTV for 15 minutes and then incubated with RF catabolites for 20 h. […] Cells were subsequently stained with PE-Cy7-conjugated anti-CD69 (BD; 1:100) and PE-labelled anti-MR1 (26.5 clone; BD; 1:100), before analysis on LSRFortessa (BD Biosciences) flow cytometer. Activation of SKW-3-MAIT cells was reflected by the cell-surface CD69 expression.

[4] = test system: SKW-3 cells expressing AF-7 (TRAV1-2/TRBV6-1) TCR; assay: MAIT cell activation assay, SKW-3 AF-7 TCR co-cultured with C1R.MR1; conditions: for 5-OP-RU-induced activation (CD69): SKW-3 AF-7, in presence of 1 nM 5-OP-RU; for CD69 surface expression (activation): SKW-3 AF-7, ligand alone
Experimental: as §1, §2

MAIT cells in human PBMC = assay: Primary MAIT activation (CD69) in PBMCs; conditions: 16 h, co-incubation with 5-OP-RU
THP-1.MR1 cells [5] = assay: Cell surface MR1 quantification by flow cytometry, THP-1.MR1; conditions: THP-1.MR1, 3 h
Experimental: Next, we investigated whether these RF catabolites can impact MR1 cell surface expression in both MR1-transduced B cell lymphoblastoid (C1R.MR1) and monocytic (THP-1.MR1) cell lines (Fig. 2). Here, the cells were pulsed with 1–200 μM of RF or the RF catabolites, and the cell surface levels of MR1 were quantified by flow cytometry ([Awad et al., 2020a]; [Keller et al., 2017]). Cell viability was unaffected, even at highest concentrations of the catabolites, as depicted in Fig. S2A. […] No impact on the MR1 surface level was observed when the parental C1R cells were incubated with these RF catabolites, probably due to the low basal surface MR1 level whose further reduction becomes undetectable by the anti-MR1 antibody (Fig. S2B). The MR1 downregulation seen in C1R.MR1 cells was specific to MR1 as the level of HLA-A*02:01 was not affected after pulsing C1R-A2 with the ligands (Fig. S2C). […]
The level of MR1 expressed on the cell surface was measured after the exposure to the investigated ligands as previously described ([Awad et al., 2020a]; [Wang et al., 2022a]). […] The PE fluorescence intensity reflects the surface MR1 level. The data was acquired with an LSRFortessa X-20 (BD Biosciences) and Diva software (BD Biosciences) and analyzed using FlowJo software (BD Biosciences).

THP-1.MR1 cells [6] = assay: Competition with Ac-6-FP-induced MR1 upregulation, THP-1.MR1; conditions: 1–200 μM overnight, then 10 μM Ac-6-FP 3 h

| SMILES | MR1 cell surface expression (C1R.MR1 cells [1]; C1R.MR1, 3 h) | total level of folded MR1 (intracellular staining with 8F2.F9) (C1R.MR1 cells [2]) | 5-OP-RU-induced activation (CD69) [3] | rank as down-regulator of MR1 cell surface expression (C1R.MR1 cells [1]; overall, C1R.MR1 and THP-1.MR1) | 5-OP-RU-induced activation (CD69) [4] | CD69 surface expression (activation) [4] | MR1 expression on C1R.MR1 in co-culture ([4]; SKW-3 AF-7 co-culture with 5-OP-RU) | CD69 surface expression (activation) ([3]; SKW-3 MBV28, ligand alone) | MR1 expression on C1R.MR1 in co-culture ([3]; SKW-3 MBV28 co-culture with 5-OP-RU) | competition with 5-OP-RU for MAIT activation (CD69) (MAIT cells in human PBMC) | MR1 cell surface expression (THP-1.MR1 cells [5]) | MR1 cell surface expression (C1R.MR1 cells [1]; C1R.MR1, 16 h) | effect on Ac-6-FP-induced cell surface upregulation of MR1 (THP-1.MR1 cells [6]) |
| --- | --- | --- | --- | --- | --- | --- | --- | --- | --- | --- | --- | --- | --- |
| O=c1nc2[nH]c3ccccc3nc-2c(=O)[nH]1 [Alloxazine, alloxazine] | reduced MR1 cell surface | also increased the total level of folded MR1 | could interfere with the 5-OP-RU-induced activation of MBV28 in a dose-dependent manner |  |  |  |  |  |  |  |  |  |  |
| Cc1cc2nc3[nH]c(=O)[nH]c(=O)c3nc2cc1C [Lumichrome, 7,8-dimethylalloxazine] | reduced MR1 cell surface | also increased the total level of folded MR1 | enhanced the 5-OP-RU-induced CD69 expression | most potent down-regulator | enhanced the 5-OP-RU-induced CD69 expression | minor reductions in CD69 | dose-dependent reduction in MR1 expression | minor reductions in CD69 | dose-dependent reduction in MR1 expression | most potent competitor |  |  |  |
| Cc1cc2nc3c(=O)[nH]c(=O)nc-3n(C)c2cc1C [Lumiflavin] |  |  |  |  | slightly exaggerated | minor increase in CD69 |  |  |  |  | downregulated MR1 |  |  |
| Cc1cc2nc3c(=O)[nH]c(=O)nc-3n(C[C@H](O)[C@H](O)[C@H](O)CO)c2cc1C [RF, Riboflavin] | did not alter MR1 expression from the baseline |  | could not compete with 5-OP-RU |  | could not compete with 5-OP-RU | minor increase in CD69 |  |  |  | potent concentration-dependent competition |  | modestly upregulated MR1 | did not modulate |
